Test results: patent publication US20100267561A1, “HERBICIDAL PYRIDAZINONE DERIVATIVES” (priority 2007, published 2010)

Columns and labels:
Type in all cases: in vivo
[1] = test system: bermudagrass (Cynodon dactylon); assay: Test B pre-/postemergence plant response; details: for Bermudagrass plant response rating: 8 g ai/ha
From the text: (§1) Seeds of plant species selected from blackgrass (Alopecurus myosuroides), downy bromegrass (Bromus tectorum), green foxtail (Setaria viridis), Italian ryegrass (Lolium multiflorum), wheat (Triticum aestivum), wild oat (Avena fatua), catchweed bedstraw (Galium aparine), bermudagrass (Cynodon dactylon), surinam grass (Brachiaria decumbens), cocklebur (Xanthium strumarium), corn (Zea mays), large crabgrass (Digitaria sanguinalis), woolly cupgrass (Eriochloa villosa), giant foxtail (Setaria faberii), goosegrass (Eleusine indica), johnsongrass (Sorghum halepense), kochia (Kochia scoparia), lambsquarters (Chenopodium album), morningglory (Ipomoea coccinea), eastern black (E.B.) nightshade (Solanum ptycanthum), yellow nutsedge (Cyperus esculentus), pigweed (Amaranthus retroflexus), common ragweed (Ambrosia elation), Russian thistle (Salsola iberica), soybean (Glycine max), common (oilseed) sunflower (Helianthus annuus), and velvetleaf (Abutilon theophrasti) were planted and treated preemergence with test chemicals formulated in a non-phytotoxic solvent mixture which included a surfactant.
(§2) At the same time, plants selected from these crop and weed species and also winter barley (Hordeum vulgare), canarygrass (Phalaris minor), chickweed (Stellaria media) and windgrass (Apera spica-venti) were treated with postemergence applications of some of the test chemicals formulated in the same manner. Plants ranged in height from 2 to 18 cm (1- to 4-leaf stage) for postemergence treatments.
(§3) Plant species in the flooded paddy test consisted of rice (Oryza sativa), umbrella sedge (Cyperus difformis), ducksalad (Heteranthera limosa) and barnyardgrass (Echinochloa crus-galli) grown to the 2-leaf stage for testing. At time of treatment, test pots were flooded to 3 cm above the soil surface, treated by application of test compounds directly to the paddy water, and then maintained at that water depth for the duration of the test. Treated plants and controls were maintained in a greenhouse for 13 to 15 days, after which time all species were compared to controls and visually evaluated. Plant response ratings, summarized in Table B, are based on a scale of 0 to 100 where 0 is no effect and 100 is complete control. A dash (-) response means no test result.

[2] = test system: eastern black (E.B.) nightshade (Solanum ptycanthum); assay: Test B pre-/postemergence plant response; details: Preemergence
From the text: as §1, §2, §3

[3] = test system: yellow nutsedge (Cyperus esculentus); assay: Test B pre-/postemergence plant response; details: for Nutsedge, Yellow plant response rating: 8 g ai/ha
From the text: as §1, §2, §3

[4] = test system: wheat (Triticum aestivum); assay: Test B pre-/postemergence plant response; details: for Wheat plant response rating: 8 g ai/ha
From the text: as §1, §2, §3

[5] = test system: velvetleaf (Abutilon theophrasti); assay: Test B pre-/postemergence plant response; details: for Velvetleaf plant response rating: 8 g ai/ha
From the text: as §1, §2, §3

soybean (Glycine max) = assay: Test B pre-/postemergence plant response; details: for Soybean plant response rating: 8 g ai/ha
From the text: as §1, §2, §3

[6] = test system: common (oilseed) sunflower (Helianthus annuus); assay: Test B pre-/postemergence plant response; details: Preemergence
From the text: as §1, §2, §3

[7] = test system: johnsongrass (Sorghum halepense); assay: Test B pre-/postemergence plant response; details: for Johnsongrass plant response rating: 8 g ai/ha
From the text: as §1, §2, §3

kochia (Kochia scoparia) = assay: Test B pre-/postemergence plant response; details: for Kochia plant response rating: 8 g ai/ha
From the text: as §1, §2, §3

[8] = test system: Italian ryegrass (Lolium multiflorum); assay: Test B pre-/postemergence plant response; details: for Ryegrass, Italian plant response rating: 8 g ai/ha
From the text: as §1, §2, §3

corn (Zea mays) = assay: Test A pre-/postemergence plant response
Summary of the method: (§4)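 Greenhouse pot test: loam–sand soil; pre- and postemergence sprays applied same day; post plants 2–10 cm, 1–2 leaves. Readout ~10 d, visual % injury vs untreated (0 = none, 100 = complete control).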

[9] = test system: giant foxtail (Setaria faberi); assay: Test A pre-/postemergence plant response
Summary of the method: as §4

[10] = Postemergence, 16 g ai/ha, scale 0 to 100
[11] = Postemergence, 31 g ai/ha, scale 0 to 100, 0 no effect, 100 complete control
[12] = Postemergence, 62 g ai/ha, scale 0 to 100, 0 no effect, 100 complete control
[13] = Preemergence, 16 g ai/ha, scale 0 to 100 (0 no effect, 100 complete control)
[14] = Preemergence, 31 g ai/ha, 0 to 100 scale, 0 no effect, 100 complete control
[15] = Preemergence, 62 g ai/ha, scale 0 to 100
[16] = 16 g ai/ha, scale 0 to 100 (0 no effect, 100 complete control)
[17] = 31 g ai/ha, 0 to 100 scale, 0 no effect, 100 complete control
[18] = Postemergence, 31 g ai/ha, 0 to 100 scale, 0 no effect, 100 complete control
[19] = Postemergence, 125 g ai/ha, 0 to 100 scale, 0 no effect, 100 complete control
[20] = Preemergence, 31 g ai/ha, 0 to 100 scale, 0 is no effect, 100 is complete control
[21] = Preemergence, 125 g ai/ha, 0 to 100 scale (0 no effect, 100 complete control)

Cc1cc(-c2ccc(Cl)cc2)nn1-c1c(OC(=O)c2ccccc2Cl)cnn(C)c1=O [Compound 38]
Bermudagrass plant response rating ([1]; postemergence, 0-100 scale): 40 | Plant response rating, Bermudagrass [1, 10]: 85 | Plant response rating, Bermudagrass [1, 11]: 100 | Plant response rating, Bermudagrass [1, 12]: 100 | Bermudagrass plant response rating ([1]; Preemergence, scale 0 to 100 (0 no effect, 100 complete control)): 60 | Plant response rating, Bermudagrass [1, 13]: 100 | Plant response rating, Bermudagrass [1, 14]: 100 | Plant response rating, Bermudagrass [1, 15]: 100 | Plant response rating, Nightshade, E. B. [2, 16]: 0 | Plant response rating, Nightshade, E. B. [2, 17]: 0 | Plant response rating, Nightshade, E. B. ([2]; 62 g ai/ha, scale 0 to 100): 0 | Nightshade, E. B. plant response rating ([2]; 8 g ai/ha, scale 0 to 100): 0 | Nutsedge, Yellow plant response rating ([3]; postemergence, 0-100 scale): 0 | Plant response rating, Nutsedge, Yellow [3, 10]: 0 | Plant response rating, Nutsedge, Yellow [3, 11]: 0 | Plant response rating, Nutsedge, Yellow [3, 12]: 0 | Plant response rating, Nutsedge, Yellow [3, 13]: 0 | Plant response rating, Nutsedge, Yellow [3, 14]: 0 | Plant response rating, Nutsedge, Yellow [3, 15]: 0 | Nutsedge, Yellow plant response rating ([3]; Preemergence, scale 0 to 100): 0 | Wheat plant response rating ([4]; postemergence, 0-100 scale): 10 | Plant response rating, Wheat [4, 10]: 45 | Plant response rating, Wheat [4, 12]: 95 | Plant response rating, Wheat [4, 13]: 0 | Plant response rating, Wheat [4, 14]: 0 | Plant response rating, Wheat [4, 15]: 90 | Wheat plant response rating ([4]; Preemergence, scale 0 to 100): 0 | Velvetleaf plant response rating ([5]; postemergence, 0-100 scale): 0 | Plant response rating, Velvetleaf [5, 10]: 0 | Plant response rating, Velvetleaf [5, 12]: 0 | Plant response rating, Velvetleaf [5, 13]: 0 | Plant response rating, Velvetleaf [5, 14]: 0 | Plant response rating, Velvetleaf [5, 15]: 0 | Velvetleaf plant response rating ([5]; Preemergence, scale 0 to 100): 0 | Soybean plant response rating (soybean (Glycine max); postemergence, 0-100 scale): 0 | Plant response rating, Soybean (soybean (Glycine max); [10]): 0 | Plant response rating, Soybean (soybean (Glycine max); [12]): 0 | Plant response rating, Soybean (soybean (Glycine max); [13]): 0 | Plant response rating, Soybean (soybean (Glycine max); [14]): 0 | Plant response rating, Soybean (soybean (Glycine max); [15]): 0 | Soybean plant response rating (soybean (Glycine max); Preemergence, scale 0 to 100): 0 | Plant response rating, Sunflower [6, 16]: 0 | Plant response rating, Sunflower [6, 17]: 0 | Plant response rating, Sunflower ([6]; 62 g ai/ha, scale 0 to 100): 0 | Sunflower plant response rating ([6]; 8 g ai/ha, scale 0 to 100): 0 | Johnsongrass plant response rating ([7]; postemergence, 0-100 scale): 60 | Plant response rating, Johnsongrass [7, 10]: 65 | Plant response rating, Johnsongrass [7, 11]: 90 | Plant response rating, Johnsongrass [7, 12]: 100 | Plant response rating, Johnsongrass [7, 14]: 70 | Plant response rating, Johnsongrass [7, 15]: 80 | Johnsongrass plant response rating ([7]; Preemergence, scale 0 to 100): 0 | Kochia plant response rating (kochia (Kochia scoparia); postemergence, 0-100 scale): 0 | Plant response rating, Kochia (kochia (Kochia scoparia); [10]): 0 | Plant response rating, Kochia (kochia (Kochia scoparia); [11]): 0 | Plant response rating, Kochia (kochia (Kochia scoparia); [12]): 0 | Plant response rating, Kochia (kochia (Kochia scoparia); [13]): 0 | Kochia plant response rating (kochia (Kochia scoparia); Preemergence, scale 0 to 100): 0 | Ryegrass, Italian plant response rating ([8]; postemergence, 0-100 scale): 10 | Plant response rating, Ryegrass, Italian [8, 10]: 85 | Plant response rating, Ryegrass, Italian [8, 11]: 85 | Plant response rating, Ryegrass, Italian [8, 12]: 98 | Plant response rating, Ryegrass, Italian [8, 13]: 80 | Plant response rating, Ryegrass, Italian [8, 14]: 95 | Plant response rating, Ryegrass, Italian [8, 15]: 100 | Ryegrass, Italian plant response rating ([8]; Preemergence, scale 0 to 100): 30 | Plant response rating, Corn (corn (Zea mays); [18]): 20 | Plant response rating, Corn (corn (Zea mays); [19]): 90 | Plant response rating, Corn (corn (Zea mays); [20]): 0 | Plant response rating, Corn (corn (Zea mays); [21]): 70 | Plant response rating, Foxtail, Giant [9, 18]: 80 | Plant response rating, Foxtail, Giant [9, 19]: 90 | Plant response rating, Foxtail, Giant [9, 20]: 90 | Plant response rating, Foxtail, Giant [9, 21]: 100
